In patent US11834463B2, “High affinity macrocyclic FKB51-inhibitors for treatment of psychiatric disorders” (priority 2020, dated 2023):
Like-named read-outs stand apart in the source and are kept apart here.

Tests used:
[1] = target: FKBP12 (Homo sapiens, UniProt P62942); assay: competitive fluorescence polarization assay, binding to FKBP12
Experimental: (§1) All macrocyclic compounds were tested in a competitive fluorescence polarization assay for binding towards FKBP51 as well as the homologs FKBP12, FKBP12.6 and FKBP52 (Table 1).
(§2) Example 8: […] of the Macrocyclic FKBP51 Ligands by SPPS

[2] = target: T1, FKBP51FK1 (Homo sapiens, UniProt Q13451); assay: biochemical
T1 sequence (Q13451 42-130 limits assumed): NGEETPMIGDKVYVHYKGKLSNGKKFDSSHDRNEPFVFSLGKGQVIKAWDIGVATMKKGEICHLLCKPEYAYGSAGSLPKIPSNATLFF
Experimental: as §1, §2

[3] = target: FKBP12.6 (Homo sapiens, UniProt P68106); assay: competitive fluorescence polarization assay, binding to FKBP12.6
Sequence of FKBP12.6 (P68106 whole entry): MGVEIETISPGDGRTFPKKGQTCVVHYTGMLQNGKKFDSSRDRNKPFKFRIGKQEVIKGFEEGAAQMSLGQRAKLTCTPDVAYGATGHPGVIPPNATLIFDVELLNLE
Experimental: as §1, §2

[4] = Table 1, competitive Fluorescence Polarization Assay, read-out: Ki [nM] FKBP12
[5] = Ki [nM] FKBP51FK1, Table 1, competitive Fluorescence Polarization Assay
[6] = Table 1, competitive Fluorescence Polarization Assay, read-out: Ki [nM] FKBP12.6
[7] = affinity, same values as Table 2 FKBP51FK1
[8] = FKBP51FK1 Ki [μM], Table 2, [a] standard error from three, [c] error from two independent measurements

Sequence of FKBP12 (P62942 whole entry): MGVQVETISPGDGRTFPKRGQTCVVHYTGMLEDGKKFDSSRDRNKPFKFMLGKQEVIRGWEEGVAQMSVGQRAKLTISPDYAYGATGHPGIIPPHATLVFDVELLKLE

SMILES | Ki [1, 4] [nM] | Ki [2, 5] [nM] | Ki [3, 6] [nM] | Ki ([1]; Table 2, read-out: FKBP12 Ki) [nM] | Ki ([3]; Table 2, read-out: FKBP12.6 Ki) [nM] | further results
COc1ccc(CC[C@H]2OC(=O)[C@@H]3CCCCN3C(=O)[C@@H](C3CCCCC3)c3cc(OC)c(c(OC)c3)OCCCCOc3cccc2c3)cc1OC [Compound 39] | 159 | 53 | 191 | – | – | –
COc1ccc(CC[C@H]2OC(=O)[C@@H]3CCCCN3C(=O)[C@@H](C3CCCCC3)c3cc(OC)c(OC)c(c3)OCCOC/C=C/COc3cccc2c3)cc1OC [37-(E)] | 182 | 46 | 74 | – | – | –
COc1ccc(CC[C@H]2OC(=O)[C@@H]3CCCCN3C(=O)[C@@H](C3CCCCC3)c3cc(OC)c(OC)c(c3)OCCOC/C=C\COc3cccc2c3)cc1OC [37-(Z)] | 270 | 113 | 190 | – | – | –
COc1ccc(CC[C@H]2OC(=O)[C@@H]3CCCCN3C(=O)[C@@H](C3CCCCC3)c3cc(OC)c(OC)c(c3)OCCCOC/C=C/COc3cccc2c3)cc1OC [38-(E)] | 269 | 93 | 144 | – | – | –
COc1ccc(CC[C@H]2OC(=O)[C@@H]3CCCCN3C(=O)[C@@H](C3CCCCC3)c3cc(OC)c(c(OC)c3)OC/C=C\COc3cccc2c3)cc1OC [31-(Z)] | 261 | 70 | 328 | – | – | –
COc1ccc(CC[C@H]2OC(=O)[C@@H]3CCCCN3C(=O)[C@@H](C3CCCCC3)c3cc(OC)c(OC)c(c3)OCCCCOc3cccc2c3)cc1OC [Compound 43] | 92 | 30 | 62 | – | – | –
COc1ccc(CC[C@H]2OC(=O)[C@@H]3CCCCN3C(=O)[C@@H](C3CCCCC3)CC(O)C(O)COCCOc3cccc2c3)cc1OC (stereo partly drawn) [Compound 82, (2R,5S,12R)-12-cyclohexyl-2-[2-(3,4-dimethoxyphenyl)ethyl]-14,15-dihydroxy-3,17,20-trioxa-10-azatricyclo[19.3.1.0^5,10]pentacosa-1(25),21,23-triene-4,11-dione] | – | – | – | – | – | binding to FKBP12 (in words) [1]: did not bind; Ki ([2]; Ki, bound to FKBP51, text b114): 1200 nM; binding to FKBP12.6 (in words) [3]: did not bind
COc1ccc(CC[C@H]2OC(=O)[C@@H]3CCCCN3C(=O)[C@@H](C3CCCCC3)c3cc(OC)c(OC)c(c3)OCCOCCCCOc3cccc2c3)cc1OC [Compound 45] | 123 | 48 | 84 | – | – | –
COc1cccc([C@@H](CCc2ccc(OC)c(OC)c2)OC(=O)[C@@H]2CCCCN2C(=O)[C@H](c2cc(OC)c(OC)c(OC)c2)C2CCCCC2)c1 [Compound A1, reference compound] | 222 | 94 | 199 | – | – | –
COc1ccc(CC[C@H]2OC(=O)[C@@H]3CCCCN3C(=O)[C@@H](C3CCCCC3)c3cc(OC)c(OC)c(c3)OCCOCC(=O)CCOc3cccc2c3)cc1OC [Compound 62] | 39 | 23 | 57 | – | – | –
COc1ccc(CC[C@H]2OC(=O)[C@@H]3CCCCN3C(=O)[C@@H](C3CCCCC3)NC(=O)[C@H]3CCCN3C(=O)COc3cccc2c3)cc1OC [Compound 90, (9R,12R,19S,22R)-12-cyclohexyl-22-[2-(3,4-dimethoxyphenyl)ethyl]-2,21-dioxa-5,11,14-triazatetracyclo[21.3.1.0^5,9.0^14,19]heptacosa-1(26),23(27),24-triene-4,10,13,20-tetrone] | – | – | – | > 80000 | > 80000 | –
COc1ccc(CC[C@H]2OC(=O)[C@@H]3CCCCN3C(=O)[C@@H](C3CCCCC3)NC(=O)C3(CC3)NC(=O)COc3cccc2c3)cc1OC [Compound 86, (2′R,5′S,12′R)-12′-cyclohexyl-2′-[2-(3,4-dimethoxyphenyl)ethyl]-3′,19′-dioxa-10′,13′,16′-triazaspiro[cyclopropane-1,15′-tricyclo[18.3.1.0^5,10]tetracosane]-1′(24′),20′,22′-triene-4′,11′,14′,17′-tetrone] | – | – | – | > 80000 | > 80000 | –
COc1ccc(CC[C@H]2OC(=O)[C@@H]3CCCCN3C(=O)[C@@H](C3CCCCC3)NC(=O)CNC(=O)COc3cccc2c3)cc1OC [Compound 83, (2R,5S,12R)-12-cyclohexyl-2-[2-(3,4-dimethoxyphenyl)ethyl]-3,19-dioxa-10,13,16-triazatricyclo[18.3.1.0^5,10]tetracosa-1(24),20,22-triene-4,11,14,17-tetrone] | – | – | – | > 80000 | > 80000 | Ki [2, 7]: 2300 nM
COc1ccc(CC[C@H]2OC(=O)[C@@H]3CCCCN3C(=O)[C@@H](C3CCCCC3)NC(=O)C3(CCC3)NC(=O)COc3cccc2c3)cc1OC [Compound 87, (2′R,5'S,12′R)-12′-cyclohexyl-2′-[2-(3,4-dimethoxyphenyl)ethyl]-3′, 19′-dioxa-10′, 13′, 16′-triazaspiro[cyclobutane-1,15′-tricyclo[18.3.1.0^5,10° ]tetracosane]-1′(24′),20′, 22′-triene-4′, 11′, 14′, 17′-tetrone] | – | – | – | > 80000 | > 80000 | Ki [2, 7]: 400 nM
COc1ccc(CC[C@H]2OC(=O)[C@@H]3CCCCN3C(=O)[C@@H](C3CCCCC3)NC(=O)CCCNC(=O)COc3cccc2c3)cc1OC [Compound 95, (2R,5S,12R)-12-cyclohexyl-2-[2-(3,4-dimethoxyphenyl)ethyl]-3,21-dioxa-10,13,18-triazatricyclo[20.3.1.0^5,10]hexacosa-1(26),22,24-triene-4,11,14,19-tetrone] | – | – | – | – | – | affinity (in words) [2]: no binding
COc1ccc(CC[C@H]2OC(=O)[C@@H]3CCCCN3C(=O)[C@@H](C3CCCCC3)c3cc(OC)c(c(OC)c3)OCCOC/C=C/COc3cccc2c3)cc1OC [33-(E)] | 534 | – | 361 | – | – | –
COc1cc2cc(c1)[C@@H](CCc1ccc(OC)c(OC)c1)OC(=O)[C@@H]1CCCCN1C(=O)[C@@H](C1CCCCC1)NC(=O)C(C)(C)NC(=O)CO2 [Compound 104, (2R,5S,12R)-12-cyclohexyl-2-[2-(3,4-dimethoxyphenyl)ethyl]-22-methoxy-15,15-dimethyl-3,19-dioxa-10,13,16-triazatricyclo[18.3.1.0^5,10]tetracosa-1(24),20,22-triene-4,11,14,17-tetrone] | – | – | – | – | – | affinity (in words) [2]: bound similarly to the glycine derivative 83; Ki [2, 8]: 390 nM

Second part, led by results:

Ki [1, 4] [nM] | Ki [2, 5] [nM] | Ki [3, 6] [nM] | Ki ([1]; Table 2, read-out: FKBP12 Ki) [nM] | Ki ([3]; Table 2, read-out: FKBP12.6 Ki) [nM] | SMILES | further results
189 | 80 | 237 | – | – | COc1ccc(CC[C@H]2OC(=O)[C@@H]3CCCCN3C(=O)[C@@H](C3CCCCC3)c3cc(OC)c(c(OC)c3)OCC/C=C\COc3cccc2c3)cc1OC [32-(Z)] | –
– | – | – | > 80000 | > 80000 | COc1ccc(CC[C@H]2OC(=O)[C@@H]3CCCCN3C(=O)[C@@H](C3CCCCC3)NC(=O)C(C)(C)NC(=O)COc3cccc2c3)cc1OC [Compound 85, (2R,5S,12R)-12-cyclohexyl-2-[2-(3,4-dimethoxyphenyl)ethyl]-15,15-dimethyl-3,19-dioxa-10,13,16-triazatricyclo[18.3.1.0^5,10]tetracosa-1(24),20,22-triene-4,11,14,17-tetrone] | Ki [2, 7]: 290 nM
309 | – | 186 | – | – | COc1ccc(CC[C@H]2OC(=O)[C@@H]3CCCCN3C(=O)[C@@H](C3CCCCC3)c3cc(OC)c(c(OC)c3)OCCOC/C=C\COc3cccc2c3)cc1OC [33-(Z)] | –
– | – | – | > 80000 | > 80000 | COc1ccc(CC[C@H]2OC(=O)[C@@H]3CCCCN3C(=O)[C@@H](C3CCCCC3)NC(=O)CCNC(=O)COc3cccc2c3)cc1OC [Compound 93, (2R,5S,12R)-12-cyclohexyl-2-[2-(3,4-dimethoxyphenyl)ethyl]-3,20-dioxa-10,13,17-triazatricyclo[19.3.1.0^5,10]pentacosa-1(25),21,23-triene-4,11,14,18-tetrone] | affinity (in words) [2]: reduced affinity; Ki [2, 8]: 7400 nM
58 | 28 | 37 | – | – | COc1ccc(CC[C@H]2OC(=O)[C@@H]3CCCCN3C(=O)[C@@H](C3CCCCC3)c3cc(OC)c(OC)c(c3)OCCCC(=O)COc3cccc2c3)cc1OC [Compound 61b] | –
– | – | – | > 80000 | > 80000 | COc1ccc(CC[C@H]2OC(=O)[C@@H]3CCCCN3C(=O)[C@@H](C3CCCCC3)NC(=O)[C@@H](C)NC(=O)COc3cccc2c3)cc1OC [Compound 84, (2R,5S,12R,15R)-12-cyclohexyl-2-[2-(3,4-dimethoxyphenyl)ethyl]-15-methyl-3,19-dioxa-10,13,16-triazatricyclo[18.3.1.0^5,10]tetracosa-1(24),20,22-triene-4,11,14,17-tetrone] | –
– | – | – | > 80000 | > 80000 | COc1ccc(CC[C@H]2OC(=O)[C@@H]3CCCCN3C(=O)[C@@H](C3CCCCC3)NC(=O)[C@@H]3CCC[C@H]3NC(=O)COc3cccc2c3)cc1OC [Compound 94, (2R,5S,12R,15R,19R)-12-cyclohexyl-2-[2-(3,4-dimethoxyphenyl)ethyl]-3,23-dioxa-10,13,20-triazatetracyclo[22.3.1.0^5,10.0^15,19]octacosa-1(28),24,26-triene-4,11,14,21-tetrone] | Ki [2, 7]: 1800 nM
88 | 43 | 65 | – | – | COc1ccc(CC[C@H]2OC(=O)[C@@H]3CCCCN3C(=O)[C@@H](C3CCCCC3)c3cc(OC)c(OC)c(c3)OCCCCCOc3cccc2c3)cc1OC [Compound 44] | –
384 | 67 | 211 | – | – | COc1ccc(CC[C@H]2OC(=O)[C@@H]3CCCCN3C(=O)[C@@H](C3CCCCC3)c3cc(OC)c(c(OC)c3)OCCCOc3cccc2c3)cc1OC [Compound 56] | –
